This note sets out measurements from paper PMC3045540 (Molecular and biochemical parasitology, 2010).

Read-outs that look alike come from different tables or passages of the source.

For test [1], the target named is LmajFGSK-3 (LmajGSK-3 short Y102F mutant) (Leishmania major, UniProt Q4QE15, Y102F). In words: biochemical. Type of test: biochemical, L. major.
The next test has as its target HsGSK-3β (Homo sapiens, UniProt P49841). The test is described as follows: Kinase-Glo assay, inhibition of human GSK-3β. Type of test: biochemical. The settings on record: read-out: Mean IC50 (SD), HsGSK-3b; 3.2 μM BioGSP-2, 2 μM ATP, 90 minutes at 30°C. On the technique in general: Kinase-Glo measures the ATP left after a reaction by luminescence.
A further test deals with LinfGSK-3 short (Leishmania infantum, UniProt A4HXQ3). The test is described as follows: biochemical. To be noted: for mode of inhibition of LinfGSK-3 short (velocity at different ATP concentrations): Fig. 3A. Type of test: biochemical, L. infantum.
Another test deals with LmajGSK-3 short (Leishmania major, UniProt Q4QE15). The test is described as follows: biochemical. Set-up: species or system L. major.
Test [2] deals with LmajEGSK-3 (LmajGSK-3 short D105E mutant) (Leishmania major, UniProt Q4QE15, D105E). The test is described as follows: biochemical. Type of test: biochemical, L. major.
A further test addresses TbruGSK-3 short (Trypanosoma brucei brucei, UniProt Q388M1). In words: biochemical. Type of test: biochemical, T. brucei.
Test [3] addresses LmajEFGSK-3 (LmajGSK-3 short Y102F and D105E double mutant) (Leishmania major, UniProt Q4QE15, D105E/Y102F). The test is described as follows: biochemical. Set-up: species or system L. major.
Setting [4] is: read-out: Mean IC50 (SD), LmajFGSK-3, Y102F mutant, 8.2 nM enzyme, 3.2 μM BioGSP-2, 2 μM ATP, 90 minutes at 30°C.

Chain of HsGSK-3β (P49841 whole entry): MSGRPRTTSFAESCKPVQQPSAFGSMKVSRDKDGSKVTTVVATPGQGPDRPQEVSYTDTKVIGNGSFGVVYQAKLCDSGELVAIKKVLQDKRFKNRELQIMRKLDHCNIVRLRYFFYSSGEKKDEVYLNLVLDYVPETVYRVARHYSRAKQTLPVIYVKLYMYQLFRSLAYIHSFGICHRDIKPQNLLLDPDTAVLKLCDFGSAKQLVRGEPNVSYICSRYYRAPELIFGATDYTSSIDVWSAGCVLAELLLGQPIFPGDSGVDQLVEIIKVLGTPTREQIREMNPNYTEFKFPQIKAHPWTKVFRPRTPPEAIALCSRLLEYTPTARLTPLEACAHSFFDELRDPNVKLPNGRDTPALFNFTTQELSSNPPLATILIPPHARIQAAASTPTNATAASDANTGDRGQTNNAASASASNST

What is called IC50 is the point on the concentration scale where inhibition reaches its midpoint. Turning to `N#CCCc1ccc2c(c1)-c1[nH]c3ccc([N+](=O)[O-])cc3c1CC(=O)N2` [Alster-paullone, 2-cyanoethyl], the IC50 in test [1] (setting [4]) is 310 nM; on HsGSK-3β, 20 nM.

`O=C1Nc2ccccc2/C1=C/c1cnc[nH]1` [Angio-genesis inhibitor]: the IC50 is 8470 nM in test [1] (setting [4]) and 1620 nM at HsGSK-3β.

For the molecule `COc1ccc(CNC(=O)Nc2ncc([N+](=O)[O-])s2)cc1` [GSK-3β Inhibitor VIII], on LinfGSK-3 short (2.8 nM enzyme, 3.2 μM BioGSP-2, 2 μM ATP, 90 minutes at 30°C), the “Mean IC50 (SD), LinfGSK-3” value is reported as “no activity”. In addition, the “Mean IC50 (SD), LmajGSK-3” value on LmajGSK-3 short (8.2 nM enzyme, 3.2 μM BioGSP-2, 2 μM ATP, 90 minutes at 30°C) was “no activity”. Moreover, the “Mean IC50 (SD), LmajEGSK-3” value in test [2] (D105E mutant, 8.2 nM enzyme, 3.2 μM BioGSP-2, 2 μM ATP, 90 minutes at 30°C) is listed as “no activity”. In test [1] (Y102F mutant, 8.2 nM enzyme, 3.2 μM BioGSP-2, 2 μM ATP, 90 minutes at 30°C), the “Mean IC50 (SD), LmajFGSK-3” value is given as “no activity”.

As for `O=C1Nc2ccc3ncsc3c2/C1=C/Nc1ccc(S(=O)(=O)Nc2ccccn2)cc1` [GW8510], on LinfGSK-3 short, the “mode of inhibition of LinfGSK-3 short (velocity at different ATP concentrations)” value is given as “ATP competitive”. Further, the half-inhibitory concentration (IC50) on LinfGSK-3 short (read-out: IC50 value for LinfGSK-3 short) worked out at 628 nM; in test [1] (read-out: IC50 value for the LmajGSK-3 short Y102F mutant), 93 nM; in test [1] (setting [4]), 90 nM; on TbruGSK-3 short (read-out: IC50 value for TbruGSK-3 short) it was 21 nM; on HsGSK-3β, 20 nM. Also, the “effect of mutation D105E of LmajGSK-3 short on sensitivity to inhibition” value in test [2] (relative to wild type LmajGSK-3 short) is about 2 fold.

`NC1=NC(=O)/C(=C2\CCNC(=O)c3[nH]c(Br)cc32)N1` [Hymeni-aldisine, Stylissa dami-cornis, Hymenialdisine]: the IC50 at LinfGSK-3 short stood at 18200 nM; against LmajGSK-3 short, 13.1 µM; in test [2], 10.4 µM; in test [1] it was 16100 nM; in test [3] it was 9.25 µM; on TbruGSK-3 short it was 3950 nM.

In the case of `O=C1Nc2ccc(S(=O)(=O)O)cc2C1=C1Nc2ccccc2C1=NO` [Indirubin-3'-monoxime-5-sulphonic Acid], the results for the IC50 (in test [1] (setting [4]); on HsGSK-3β) were 930 nM and 60 nM, respectively.

With `Cn1cc(C2=C(c3cn(CCCN)c4ccccc34)C(=O)NC2=O)c2ccccc21` [Ro-31-7549], the IC50 was 1080 nM in test [1] (setting [4]) and 4 nM at HsGSK-3β.

As for `COc1ccc2c(c1)/C(=C/c1cnc[nH]1)C(=O)N2` [SU9516], the IC50 against LinfGSK-3 short was 1870 nM; against LmajGSK-3 short it was 3.04 µM; in test [2], 3.15 µM; in test [1], 1400 nM; in test [3], 1.29 µM; at TbruGSK-3 short, 590 nM.

Regarding Cdk1/2 Inhibitor III, the “mode of inhibition of LinfGSK-3 short (velocity at different ATP concentrations)” value at LinfGSK-3 short was “ATP competitive”. For the same molecule, the half-inhibitory concentration (IC50) in test [1] (setting [4]) was 150 nM; at HsGSK-3β it was 210 nM.
